Several values for one entry are separate records, joined by “and”; a condition that tells them apart may be missing. Identical values can stand only once.
Tests used:
Format in all cases: ADME, organism-based
Homo sapiens [1] = assay: (§1) Evaluation of pharmacokinetic parameters for Doxorubicin hydrochloride following single intravenous administration of Doxorubicin hydrochloride solution to patients with various types of tumors.; details: in vivo, iv, dosed compound id 8, dosed compound name DOXORUBICIN HYDROCHLORIDE, regimen Single dose, tissue Plasma
[2] = as §1; details: human, dosed compound id 8, dosed compound name DOXORUBICIN HYDROCHLORIDE, regimen Single dose, tissue Plasma, read-out: Protein binding (converted)
Homo sapiens [3] = assay: Evaluation of pharmacokinetic parameters for Doxorubicin hydrochloride following multiple intravenous administration of Doxorubicin hydrochloride solution to children, adolescents and adults subjects; details: in vivo, dose 10 to 75 mg/m2, dosed compound id 8, dosed compound name DOXORUBICIN HYDROCHLORIDE, gender male and female, regimen Multiple dose, tissue Plasma

COc1cccc2c1C(=O)c1c(O)c3c(c(O)c1C2=O)C[C@@](O)(C(=O)CO)C[C@@H]3O[C@H]1C[C@H](N)[C@H](O)[C@H](C)O1.Cl [DOXORUBICIN HYDROCHLORIDE]
CL (Homo sapiens [1]; gender female): 433 mL/min/m2 | t1/2-terminal (Homo sapiens [1]; gender female): 35 h | CL (Homo sapiens [1]; gender male): 1088 mL/min/m2 | t1/2-terminal (Homo sapiens [1]; gender male): 54 h | t1/2-distribution (Homo sapiens [1]): 5 min | t1/2-terminal (Homo sapiens [1]): 20 to 48 h | fraction unbound [2]: 0.25 | CL (Homo sapiens [3]): 1443 mL/min/m2 and 1540 mL/min/m2 and 813 mL/min/m2
